# Test results reported in PubChem BioAssay (NCI).
# “And” between values parts separate entries of the source, which are not always exact repeats. Identical values can stand only once.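 Tested at 5 concentrations; 48 h exposure; 96-well plates; endpoints linearly interpolated, else capped at highest concentration. GI50 = concentration required for 50% inhibition of growth. TGI denotes the concentration required for complete inhibition of growth.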
# Experiments:
# Test in all cases: NCI-60 cell line screen, 48 h
# CCRF-CEM leukemia = test system: CCRF-CEM leukemia
# DU-145 prostate = test system: DU-145 prostate
# HCC-2998 colon = test system: HCC-2998 colon
# NCI-H226 lung = test system: NCI-H226 lung
# T-47D breast = test system: T-47D breast
# COLO 205 colon = test system: COLO 205 colon
# SK-MEL-5 melanoma = test system: SK-MEL-5 melanoma
# IGROV1 ovarian = test system: IGROV1 ovarian
# KM20L2 colon = test system: KM20L2 colon
# OVCAR-8 ovarian = test system: OVCAR-8 ovarian
# HT29 colon = test system: HT29 colon
Structure (SMILES),TGI (CCRF-CEM leukemia) [µM],GI50 (DU-145 prostate) [µM],TGI (DU-145 prostate),GI50 (HCC-2998 colon) [µM],TGI (HCC-2998 colon) [µM],GI50 (NCI-H226 lung) [µM],TGI (NCI-H226 lung),TGI (T-47D breast),GI50 (COLO 205 colon) [µM],TGI (COLO 205 colon),GI50 (SK-MEL-5 melanoma) [µM],TGI (SK-MEL-5 melanoma),GI50 (IGROV1 ovarian) [µM],TGI (IGROV1 ovarian),GI50 (KM20L2 colon) [µM],TGI (KM20L2 colon),GI50 (OVCAR-8 ovarian) [µM],TGI (OVCAR-8 ovarian),GI50 (HT29 colon) [µM],TGI (HT29 colon)
NCCNc1ccc(NCCN)c2c1C(=O)c1c(O)ccc(O)c1C2=O,3.79,0.0301,0.398 µM and 2.56 µM,0.147,1.24,0.0102,0.0439 µM and 0.0393 µM,2.66 µM and 4.38 µM,0.157,2.36 µM and 1.19 µM,0.0709,1.47 µM and 1.11 µM,0.182,1.17 µM and 1.5 µM,0.251,1.5 µM and 1.53 µM,0.02,0.466 µM and 0.353 µM,0.0922,1.34 µM and 1.23 µM
CC(=O)c1ccc(Nc2nc3ccccc3c3occc23)cc1,67.3,–,75 µM,–,28.4,–,98 µM,29.9 µM,–,27.6 µM,–,28.2 µM,–,36.2 µM,–,–,–,> 100 µM,–,17.3 µM
CC(=O)C(C(=O)C(=O)Nc1cc(Cl)c(Cl)cc1Cl)c1csc(N)n1 (configuration not stated),> 100,–,–,–,> 100,–,> 100 µM,–,–,> 100 µM,–,> 100 µM,–,> 100 µM,–,> 100 µM,–,> 100 µM,–,> 100 µM
CCCc1cn2c(/C=N/N=C(N)N)c(-c3ccc([N+](=O)[O-])cc3)nc2s1,1.3,–,–,–,2.03,–,3.33 µM,2.71 µM,–,1.19 µM,–,54 µM,–,3.05 µM,–,–,–,3.21 µM,–,> 100 µM
O=[N+]([O-])c1ccc(C2NC(=S)NC3c4cc([N+](=O)[O-])ccc4CCCC23)cc1 (configuration not stated),> 100,–,> 100 µM,–,> 100,–,> 100 µM,> 100 µM,–,> 100 µM,–,> 100 µM,–,> 100 µM,–,–,–,> 100 µM,–,> 100 µM
COC1=C(OC)C(=O)C(C/C=C/c2c(Cl)nc3sccn23)=C(C)C1=O,41.1,–,40.3 µM,–,39.3,–,–,84.2 µM,–,31.9 µM,–,12.9 µM,–,35.9 µM,–,–,–,24.2 µM,–,46.9 µM
CCCCCC1CC(C(C)=O)CN1c1ccc(F)cc1 (configuration not stated),–,–,–,–,> 100,–,–,–,–,> 100 µM,–,38.3 µM,–,–,–,> 100 µM,–,> 100 µM,–,> 100 µM
CCn1c(=O)c2c3ccc(O)cc3[nH]c2c2ccc(O)cc21,> 100,–,> 100 µM,–,> 100,–,> 100 µM,> 100 µM,–,> 100 µM,–,> 100 µM,–,> 100 µM,–,–,–,> 100 µM,–,> 100 µM
O=C(N/N=C/c1cc(Cl)cc(Cl)c1[O-])c1ccccc1O.O=C(N/N=C/c1cc(Cl)cc(Cl)c1[O-])c1ccccc1O.[Cu+2],–,–,–,–,1.46,–,–,–,0.186,0.348 µM,–,0.966 µM,–,1.16 µM,0.909,2.28 µM,–,1.08 µM,–,2.06 µM
Cn1cc(-c2csc(-c3cn(CCCN4CCCCC4)c4ccc(Br)cc34)n2)c2cccnc21,–,1.79,3.21 µM,1.86,3.61,2.07,4.84 µM,–,–,–,1.86,3.41 µM,1.63,3.33 µM,–,–,–,–,–,–
